What was measured:
SUM159 cells = assay: SUM159 cell growth (Cell-Titer Glo, cell counts); format: cell-based, human; settings: 5 μM MEK inhibitor (FIG. 2A)
Method: (§1) Cell Culture: MDA-MB-231 cells were grown in DMEM/F12 supplemented with 10% FBS. SUM-159 cells were grown in DMEM/F12 supplemented with 10% FBS 1 μg/mL hydrocortisone, and 5 μg/mL insulin. SUM159-R cells were continually grown in the presence of 5 μM AZD6244. For SILAC labeling, cells were grown for five doublings in arginine- and lysine-depleted media (as above) supplemented with either unlabeled L-arginine (42 mg/L) and L-lysine (71 mg/L) or equimolar amounts of heavy isotope labeled [13C6,15N4]arginine (Arg10) and [13C6]lysine (Lys6) (Cambridge Isotope Laboratories). Proliferation was quantified using Cell-Titer Glo Luminescent Cell Viability Assay (Promega). Fresh media containing DMSO or kinase inhibitors was added daily and experiments were performed in triplicate.

MDA-MB-231 cells = assay: MDA-MB-231 cell growth (Cell-Titer Glo); format: cell-based, human; settings: 5 μM MEK inhibitor (FIG. 9A)
Method: as §1

ERK1/2 [1] = assay: Western blot of MEK/ERK signaling in SUM159 cells; format: cell-based, human; settings: 15 min-4 h, SUM159 and MDA-MB-231 cells
Description: (§2) Detailed methods and antibodies are provided in Supplemental Experimental Procedures.
(§3) Western blotting: Proteins from cell lysates were separated by SDS-PAGE chromatography, transferred to nitrocellulose membranes, and probed with the indicated primary antibodies. Antibodies recognizing pAKT (S473), pAKT (T308), AURA, pAXL (Y702), AXL, c-Myc, DDR1, EGFR, pERK1/2 (T202/Y204), pHER3 (Y1197), MAX, pMEK1/2 (S217/S221), MEK1/2, MKP3, pP70S6K (T389), pPDGFRβ (Y751), pPDGFRβ (Y1009), pPDGFR (Y857), PDGFRβ, pRAF (S338), pRSK1 (T359/S363), pVEGFR2 (Y1175), VEGFR2 were obtained from Cell Signaling Technology. Antibodies for Cyclin A2, Cyclin B1, Cyclin D1, ERK2, RAF, and pRAF (S259) were obtained from Santa Cruz Biotechnology. The antibody recognizing Bim was obtained from Chemicon. The antibody recognizing p-c-Myc (S62) was obtained from Abeam. Secondary HRP-anti-rabbit and HRP-anti-goat secondary antibodies were from Jackson Immunoresearch Laboratories and Santa Cruz Biotechnology, respectively. Western blots were visualized by incubation with SuperSignal West Pico Chemiluminescent Substrate (Thermo Scientific).

RTKs [2] = assay: RTK tyrosine phosphorylation/expression in SUM159 cells (RTK arrays, western blot); format: cell-based, human; settings: 5 μM AZD6244; 50 nM BEZ235 (FIG. 3H)
Method: (§4) Western blotting and RTK arrays: Western blotting and RTK array analysis were performed as previously described (Amin et al., 2010). Amin et al. 2010 Sci Transl Med 2, 16ra17. Detailed methods and antibodies are provided in Supplemental Experimental Procedures.
as §3
RTK arrays: Cells were harvested in RTK array lysis buffer containing 20 mM Tris-HCl (pH 8.0), 1% NP-40, 10% glycerol, 137 mM NaCl, 2 mM EDTA, 1×EDTA-free protease inhibitor cocktail (Roche), and 1% each of phosphatase inhibitor cocktails 1 and 2 (Sigma). After incubating on ice for 20 minutes, cell debris was pelleted at 4° C. Lysates (500 μg protein) were applied to R&D Systems Proteome Profiler™ Human Phospho-RTK antibody arrays. Washing and secondary antibody steps were performed according to the manufacturer“s instructions. RTK arrays were visualized by SuperSignal West Pico Chemiluminescent Substrate (Thermo Scientific).

c-Myc = c-Myc protein and RNA levels in SUM159 cells (western blot, qRT-PCR); format: cell-based, human; settings: 5 μM AZD6244
Method: as §4
qRT-PCR: Total RNA was isolated from human breast cancer cell lines or murine tumors using the RNeasy® Plus Mini Kit (Qiagen). Real-time RT-PCR was performed on diluted cDNA using the Applied Biosystems 7500 Fast Real-Time PCR System (standard program) and inventoried TaqMan® Gene Expression Assays. Each cDNA sample was assayed in triplicate. Fold change with respect to the calibrator represents the average of the triplicate values, with error bars representing the range of the mean (95% confidence).
as §3

ERK1/2 [3] = assay: ERK activity in SUM159-R cells (western blot); format: cell-based, human
Method: as §2
Generation of AZD6244 resistant SUM159 cells: SUM159 cells were cultured in DMEM/F12 supplemented with 10% FBS media containing 5 μM AZD6244. Media was changed every 2 days, maintaining inhibitor concentrations of 5 μM AZD6244.
as §3

C3Tag tumors = assay: In vivo tumorigenesis experiment, C3Tag TNBC GEMM (tumor volume); design: species or system mouse; settings: 21 days, AZD6244 20 mg/kg, sorafenib 30 mg/kg in diet
Method: In vivo tumorigenesis experiments: Animal handling and procedures were approved by the University of North Carolina at Chapel Hill Institutional Animal Care and Use Committee and followed the NIH guidelines. Male C3Tag mice were bred with wild type females to produce experimental offspring. Mice were examined for tumors weekly until a palpable mass was found. Treatment began the same day. Tumor size was assessed twice weekly by caliper measurements of tumor areas ((width)2×length))/2 for 21 days. Percent change of tumor volume was calculated using (Final volume−Initial Volume)/Initial Volume and graphed using R (http://www.r-project.org/). Drugs were incorporated into the diet of mice to achieve a daily dose of AZD6244 20 mg/kg and sorafenib 30 mg/kg. Food was provided ab libitum and the amount of daily food intake was pre-determined using Jackson Labs Phenome Database. Tumors at harvest were cut in half and either snap-frozen in liquid nitrogen and stored at −80° C. or placed in neutral buffered 10% formalin solution.

ERK = assay: MEK/ERK activation in C3Tag tumors (western blot); format: in vivo, mouse; settings: AZD6244 20 mg/kg 28 days; sorafenib 30 mg/kg 26 days
Method: (§5) Treatment began the same day. Tumor size was assessed twice weekly by caliper measurements of tumor areas ((width)2×length))/2 for 21 days. […] Drugs were incorporated into the diet of mice to achieve a daily dose of AZD6244 20 mg/kg and sorafenib 30 mg/kg. […] Tumors at harvest were cut in half and either snap-frozen in liquid nitrogen and stored at −80° C. or placed in neutral buffered 10% formalin solution.
as §3, with “Western blots were visualized by incubation with SuperSignal West Pico Chemiluminescent Substrate (Thermo Scientific).” left out

RTKs [4] = assay: RTK expression in C3Tag tumors (western blot); format: in vivo, mouse
Method: as §5, §3

Cn1cnc2c(F)c(Nc3ccc(Br)cc3Cl)c(C(=O)NOCCO)cc21 [AZD6244]
growth of SUM159 cells (SUM159 cells): inhibited growth
growth of MDA-MB-231 cells (MDA-MB-231 cells): inhibited growth
MEK and ERK, early response (ERK1/2 [1]): rapidly inhibited
RTK phosphorylation profile (RTKs [2]): induced PDGFRβ, VEGFR2 and AXL phosphorylation
c-Myc protein and mRNA (c-Myc): rapid loss of c-Myc protein and c-Myc mRNA
ERK activation in SUM159-R cells (ERK1/2 [3]; 25 μM AZD6244): inhibited ERK activation
ERK activity in SUM159-R cells (ERK1/2 [3]; 50 μM AZD6244): can be inhibited
mice with tumor regression (C3Tag tumors): 30%
tumor MEK and ERK compared to untreated animals (ERK): strongly activated
expression of RTKs in C3Tag tumors versus untreated (RTKs [4]; AZD6244 20 mg/kg 28 days, sorafenib 30 mg/kg 26 days): elevated
PDGFRβ expression in C3Tag tumors (RTKs [4]; AZD6244 20 mg/kg, 2 and 7 days): strongly induced
